Assay results reported in patent US20250000874A1, “BACTERIAL METABOLITES AND THEIR USE IN REDUCING INFLAMMATION” (LOYOLA UNIVERSITY OF CHICAGO, priority 2023, published 2025).
Entries after “also recorded” stand apart in the source; their conditions may differ.

Tests used:
dry eye disease model = experiment: Murine experimental dry eye (DED) model, ICES; assay type: in vivo, mouse
Description: FIG. 12. Corneal Florescein Staining with JE-treated Experimental Dry Eye. Mean corneal staining score with JE/control topical treatment (4 times/day) starting 3 weeks after housing in ICES. Group 1: Normal control (non DED); group 2: Dry Eye treated with JE (JE+DED); Group 3: Dry Eye treated with vehicle (control DED). P value: *: <0.05. One of two experiments is shown.
FIG. 25. Pro-Inflammatory IL-6 Cytokine Expression in Corneal Tissues Isolated from Control, Vehicle Control, and Treatment Groups. Corneal samples from the three groups were isolated, stabilized in RNA later, and stored at-80. Corneal samples were homogenized, and RNA was purified using RNAeasy mini-kit. A total of 0.5 μg-1 μg RNA was yielded. RT-qPCR was performed. Values were normalized to GAPDH control, and fold induction was measured as 2-ΔΔCT. One of two experiments is shown.
We further tested if JE reduced corneal tissue damage in a murine DED model. Thus, normal C57BL/6J mice were maintained in relative humidity 60% to 80%, no airflow at 21-23° C. as normal control (Group 1). The experimental dry eye was induced by using an Intelligently Controlled Environmental System (ICES). Dry eye mice (Group 2 and Group 3) were housed in ICES with relative humidity at 13+4%, airflow of 2.2+0.2 m/s, and temperature of 21-23° for 3 weeks. Group 2 mice were treated with 10 μL JE at 50 μM 0.35% (v/v) DMSO in PBS and group 3 (vehicle control) were treated with 10 μL of 0.35% (v/v) DMSO in PBS, 4 time/day topically for 14 days. Corneal fluorescein staining was evaluated at week 0, 3 and 5. The stained area was assessed according to a standardized grading system ranging from 0 to 4, with the corneal surface divided into five regions. Then the total scores from the five regions were analyzed. […] The data strongly support that JE (3,3-Difluoro-5-alpha-androstan-17-beta-yl acetate) can be used as therapeutic agent for non-infectious inflammatory diseases. […]
This pattern of staining points to significant corneal damage and inflammation. […] Next, the IL-6 cytokine expression was measured in corneal samples using RT-qPCR. […]

Raw 264.7 Cells = experiment: JE on TNF-α and IL-6 production by Raw 264.7 cells upon TLR agonists; assay type: cell-based, mouse; details: for decrease in TNF-α production: vs untreated macrophages
Description: (§1) FIG. 13. The Effect of JE on TNF-α Production by Raw 264.7 Cells Upon Stimulation with TLR Agonists. Macrophages were incubated overnight with JE at a concentration of 50 μM at t 37° C., 5% CO2. The following day, the macrophages were stimulated with 10 ng/ml of LPS, 1 μg/ml of FLG-St, 3 μg/ml of PAM-3csk, 1 μM of ODN and 20 μg/ml of Poly: IC for 3 hours. Supernatants were collected, and TNF-α was measured by ELISA. The data are presented as mean±SEM (n=6). *p<0.05; **p<0.01; ***p<0.001. One of three experiments is shown.
FIG. 14. The Effect of JE on TNF-α Production by Raw 264.7 Cells Upon Stimulation with TLR Agonists. Macrophages were incubated overnight with JE at a concentration of 50 μM at 37° C., 5% CO2. The following day, the macrophages were stimulated with 1 μg/ml of FSL-1 2 μg/ml of Imiquimod for 3 hours. Supernatants were collected and TNF-α was measured by ELISA. Data are presented as mean±SEM (n=6). *p<0.05; **p<0.01; ***p <0.001. One of three experiments is shown.
as §1, with “15.” for “13.”, “IL-6” for “TNF-α”, “TLR agonists at the same concentrations that I used” for “10 ng/ml of LPS, 1 μg/ml of FLG-St, 3 μg/ml of PAM-3csk, 1 μM of ODN and 20 μg/ml of Poly: IC”, “TNF-α induction.” for “3 hours.”
Murine macrophages, both RAW 264.7 macrophages and bone marrow-derived macrophages (BMDMs), were seeded and then pretreated overnight with the metabolite JE. The following day, the macrophages were stimulated with one of TLR agonists, including LPS, FLA-ST, ODN, Pam3SCK4, Poly: IC LMW, FSL, and Imiquimod for 3 hours, then the production of TNF-α, and IL-6 in the culture supernatants was measured by ELISA.

[1] = JE 50 μM overnight, TLR agonists 3 hours, vs media with TLR agonists

## CC(=O)O[C@@H]1CC[C@H]2[C@H]3CC[C@H]4CC(F)(F)CC[C@]4(C)[C@H]3CC[C@]12C [JE, 3,3-Difluoro-5-alpha-androstan-17-beta-yl acetate]
Dry eye disease model; 10 μL JE 50 μM topically 4 times/day for 14 days after 3 weeks in ICES, vs vehicle control, day 35
  corneal fluorescein staining score: significantly reduced
Dry eye disease model; JE eye drops four times a day for 14 days
  IL-6 expression in corneal samples (RT-qPCR): decreased; also recorded: did not return to the baseline
Dry eye disease model; JE eye drops four times a day for 14 days, relative to vehicle control
  surface area of corneal damage: decrease
Raw 264.7 Cells; JE 50 μM overnight, TLR 1/2 agonist PAM-3CSK
  decrease in TNF-α production: 4 fold
Raw 264.7 Cells; JE 50 μM overnight, TLR2/6 agonist FSL-1
  TNF-α secretion: completely abolished
Raw 264.7 Cells; JE 50 μM overnight, TLR4 agonist LPS
  TNF-α production: reduced
Raw 264.7 Cells; JE 50 μM overnight, TLR 5 agonist FLG-ST
  decrease in TNF-α production: 4 fold
Raw 264.7 Cells; JE 50 μM overnight, TLR7 agonist Imiquimod
  TNF-α production: reduced
Raw 264.7 Cells; [1]
  production of IL-6: significantly reduced
  production of TNF-α: significantly reduced
Raw 264.7 Cells; JE 50 μM overnight, TLR-3 agonist Poly: IC LMW
  TNF-α secretion: completely abolished
Raw 264.7 Cells; JE pretreatment, LPS, relative to untreated macrophages
  decrease in IL-6 secreted: 4 fold
